Test results published in patent publication US20060089302A1, “Hsp70-derived peptides and uses thereof in the diagnosis and treatment of autoimmune diseases” (priority 2002, published 2006).
Values joined by “and” are separate entries in the source; they are usually repeats but may differ in a detail not shown here. Equal entries are not always repeated.

What was measured:
[1] = tested on: peripheral blood mononuclear cells (PBMC) / T-cells; assay: T-cell proliferation assay (3H-Thymidine incorporation, stimulation index); format: cell-based, human; conditions: for Number of Type 1 Diabetes subjects responding to the peptide: epitope mapping, seven subjects tested (p1: three of these plus two adult patients), S.I.≥2; for Number of Type 1 Diabetes subjects responding to the peptide / T-cell reactivity to hsp70 peptide (epitope mapping): peptide 5-20 μg/ml; for T-cell reactivity to hsp70 peptide (epitope mapping): seven Type 1 Diabetes patients (P3, P16, P18, P20, P21, P23, P24), immunogenic when at least 3 out of 7 patients had S.I.≥2; for T-cell proliferative response, S.I., Mean ± SD: group mean
[2] = tested on: serum IgG anti-hsp60, anti-hsp70, anti-hsp90, anti-tetanus toxoid; assay: Determination of auto-antibodies (antibody capture ELISA on antigen-coated plates); format: binding, human; conditions: for IgG antibodies to the antigen in serum, Mean ± SD: group mean
Method: All of the serum samples that were collected were stored in aliquotes at −20° C. and thawed before each assay. Total human IgG anti-hsp60, anti-hsp70, and anti-hsp90, as well as anti-tetanus toxoid proteins were detected by the antibody capture-type enzyme immunoassay ELISA [Maggio, M. T. (1981) Enzyme Immunoassay, CRC Press, Boca Raton, USA]. 96-well micro titer plates (Dynatech) were coated with the protein according to the antibody being tested. Serum samples were distributed at dilutions in the range of 1:50 to 1:70 into the pre-coated wells for the protein detection assay. Thus, any IgG anti-hsp60, anti-hsp70, anti-hsp90, or anti-tetanus toxoid present should be bound by the immobilized peptide or protein. After washing off unbound material, a mouse monoclonal anti-human IgG antibody conjugated to alkaline phosphatase (AP) was added to the wells. After an additional washing step to remove any unbound anti-enzyme reagent, the AP substrate p-nitrophenyl phosphate (pNPP) solution was added. The intensity of the color developed was measured using an Anthos htll ELISA reader at λ=405 nm. The amount of antibody detected was represented as Units of Optical Density at λ=405 nm. Patients and control subjects were assayed in the same experiment.
The InStat 2.01 computer program was used for the statistical analysis. The results obtained from the samples of healthy individuals were used to determine the cutoff for each assay, which was established as the mean plus two standard deviations (SDs). […] The results were presented as the percentage of positive from the total tested group.
Levels of IgG antibodies to hsp60, hsp70, and hsp90 were measured in the sera of 20 Type 1 Diabetes children (P1-P5, P7-P21; Table 3A) and two control groups, 10 normoglycemic children (Table 3B) and 15 healthy adult blood donors (Table 3C). The level of the antibodies was scored as positive when it was greater than the cut-off level (cut-off levels were established based on the mean value of antibody levels from the normoglycemic children plus two standard deviations).

[3] = healthy subjects / healthy blood donors
[4] = Type 1 diabetes children (n=20), cut-off = mean of normoglycemic children plus two SD
[5] = healthy adult blood donors (n=15)
[6] = pediatric control serum donors / healthy children (n=10)

MAKAAAVGIDLGTTYSCVGV (listed as Homo sapiens) [p1, human hsp70 residues 1-20]
Number of Type 1 Diabetes subjects responding to the peptide [1]: five
T-cell reactivity to hsp70 peptide (epitope mapping) [1]: triggered a T-cell response

PTKQTQIFTTYSDNQPGVLI (listed as Homo sapiens) [p29, human hsp70 residues 421-440]
T-cell reactivity to hsp70 peptide (epitope mapping) [1]: triggered a T-cell response

TIDDGIFEVKATAGDTHLGG (listed as Homo sapiens) [p15, human hsp70 residues 210-229]
T-cell reactivity to hsp70 peptide (epitope mapping) [1]: triggered a T-cell response

THLGGEDFDNRLVNHFVEEF (listed as Homo sapiens) [p16, human hsp70 residues 225-244]
T-cell reactivity to hsp70 peptide (epitope mapping) [1]: triggered a T-cell response

KRTLSSSTQASLEIDSLFEG (listed as Homo sapiens) [p19, human hsp70 residues 271-290]
T-cell reactivity to hsp70 peptide (epitope mapping) [1]: triggered a T-cell response

KANKITITNDKGRLSKEEIE (listed as Homo sapiens) [p34, human hsp70 residues 496-515]
T-cell reactivity to hsp70 peptide (epitope mapping) [1]: triggered a T-cell response

hsp70: recombinant human hsp70 (StressGen, Canada), intact heat-shock protein
T-cell proliferative response, S.I., Mean ± SD ([1]; Healthy subjects): 1.4±0.6 and 1.45±0.6 and 1.44 ± 0.6
T-cell proliferative response, S.I., Mean ± SD ([1]; Type 1 Diabetes adult patients): 2.6+0.84 and 2.6 ± 0.84
Responding subjects (S.I.≥2) ([1]; Type 1 Diabetes adult patients, within 12 weeks from diagnosis): about 86%
Responding subjects (S.I.≥2) ([1]; Type 1 Diabetes children): 85%
Responding subjects (S.I.≥2) ([1]; Type 2 Diabetes patients): 27%
T-cell proliferative response, S.I., Mean ± SD ([1]; Type 2 Diabetes patients): 1.8±1.3 and 1.8 ± 1.26
Responding subjects (S.I.≥2) [1, 3]: 14% and 13%
IgG antibodies to the antigen in serum, Mean ± SD ([2]; Type 1 Diabetes children): 0.5 ± 0.41 Units of Optical Density at λ=405 nm
Positive (antibody level above cut-off) [2, 4]: 30%
Positive (antibody level above cut-off) ([2]; Type 1 diabetes children (n=20), cut-off = mean of normoglycemic children plus two SD, listed as Hsp70): 30%
Positive (antibody level above cut-off) [2, 5]: 6%
Positive (antibody level above cut-off) ([2]; healthy adult blood donors (n=15), listed as Hsp70): 6.6%
IgG antibodies to the antigen in serum, Mean ± SD ([2]; healthy adult blood donors): 0.43 ± 0.1 Units of Optical Density at λ=405 nm
Positive (antibody level above cut-off) [2, 6]: none
Positive (antibody level above cut-off) ([2]; pediatric control serum donors / healthy children (n=10), listed as Hsp70): 0%
IgG antibodies to the antigen in serum, Mean ± SD ([2]; pediatric control serum donors): 0.35 ± 0.09 Units of Optical Density at λ=405 nm

hsp90: recombinant human hsp90 (StressGen, Canada), heat-shock protein
T-cell proliferative response, S.I., Mean ± SD ([1]; Healthy subjects): 1.52±0.7
T-cell response, in words ([1]; Type 1 Diabetes adult patients (Table 1D), tested after more than 12 weeks): No response
T-cell proliferative response, S.I., Mean ± SD ([1]; Type 1 Diabetes adult patients): 1.4 ± 0.3
Responding subjects (S.I.≥2) ([1]; Type 1 Diabetes children): 21%
T-cell proliferative response, S.I., Mean ± SD ([1]; Type 1 Diabetes children): 1.7±1.2 and 1.7 ± 1.1
Responding subjects (S.I.≥2) ([1]; Type 2 Diabetes patients): 9%
T-cell proliferative response, S.I., Mean ± SD ([1]; Type 2 Diabetes patients): 1.6±1.4 and 1.6 ± 1.38
Responding subjects (S.I.≥2) [1, 3]: 25%
IgG antibodies to the antigen in serum, Mean ± SD ([2]; Type 1 Diabetes children): 0.47 ± 0.13 Units of Optical Density at λ=405 nm
Positive (antibody level above cut-off) [2, 4]: 15%
Positive (antibody level above cut-off) ([2]; Type 1 diabetes children (n=20), cut-off = mean of normoglycemic children plus two SD, listed as Hsp90): 15%
Positive (antibody level above cut-off) [2, 5]: 6%
Positive (antibody level above cut-off) ([2]; healthy adult blood donors (n=15), listed as Hsp90): 6.6%
IgG antibodies to the antigen in serum, Mean ± SD ([2]; healthy adult blood donors): 0.46 ± 0.1 Units of Optical Density at λ=405 nm
Positive (antibody level above cut-off) [2, 6]: none
Positive (antibody level above cut-off) ([2]; pediatric control serum donors / healthy children (n=10), listed as Hsp90): 0%
IgG antibodies to the antigen in serum, Mean ± SD ([2]; pediatric control serum donors): 0.43 ± 0.1 Units of Optical Density at λ=405 nm

Tetanus Toxoid: recall antigen Tetanus Toxoid (Connaught Lab. Inc, Penn., USA) [reference compound]
T-cell proliferative response, S.I., Mean ± SD ([1]; Healthy subjects): 8.01 ± 9.3
T-cell proliferative response, S.I., Mean ± SD ([1]; Healthy subjects, listed as tetanus toxoid): 9.4±6.4
T-cell proliferative response, S.I., Mean ± SD ([1]; Type 1 Diabetes adult patients): 14.3 ± 22.86
T-cell proliferative response, S.I., Mean ± SD ([1]; Type 1 Diabetes children): 17.2±16.1
T-cell proliferative response, S.I., Mean ± SD ([1]; Type 1 Diabetes children, listed as T.T.): 17.2 ± 15.9
T-cell proliferative response, S.I., Mean ± SD ([1]; Type 2 Diabetes patients): 4.4
T-cell proliferative response, S.I., Mean ± SD ([1]; Type 2 Diabetes patients, listed as tetanus toxoid): 4.4±2.9
Serum antibodies to control antigen, in words ([2]; Type 1 Diabetes and control groups): comparably high

LLLLDVAPLSLGLETAGGVM (listed as Homo sapiens) [p27, human hsp70 residues 391-410]
Number of Type 1 Diabetes subjects responding to the peptide [1]: six out of seven
T-cell reactivity to hsp70 peptide (epitope mapping) [1]: triggered a T-cell response

KEEIERMVQEAEKYKAEDEV (listed as Homo sapiens) [p35, human hsp70 residues 511-530]
Number of Type 1 Diabetes subjects responding to the peptide [1]: five
T-cell reactivity to hsp70 peptide (epitope mapping) [1]: triggered a T-cell response
